Data from patent US20220000872A1, “METHOD OF ENHANCING IMMUNE-BASED THERAPY” (OncoTracker, Inc., priority 2018, published 2022).
“Also recorded” adds a separate entry of the source.

Assays:
[1] = tested on: PD-L1 gene expression; assay: PD-L1 gene expression (qPCR) in MM BMMCs co-cultured with THP-1 monocytes; format: cell-based, human; settings: BMMCs from MM patient #3041 co-cultured with THP-1 monocytes, RUX 1 μM, 48 hours
Description: MM patient #3041 bone marrow mononuclear cells were co-cultured with THP-1 monocytes with or without RUX (from […] to 10 μM) for 48 hours.
Next, we investigated the effects of ruxolitinib (RUX) on PD-L1 and PD-L2 gene expression in MM bone marrow mononuclear cells (BMMCs) co-cultured with THP-1 monocytes. THP-1 monocytes co-cultured with primary BMMCs from MM patient #3041 were grown in the presence or absence of RUX (1 μM).

[2] = tested on: PD-1 expression on T-cells; assay: PD-1 expression on T-cells (Example 11); format: cell-based
[3] = tested on: multiple myeloma; settings: Phase 1 clinical trial NCT00639002; cited from earlier work
[4] = tested on: B7-H3 gene expression; assay: B7-H3 gene expression (qPCR) in MM BMMCs, U266 cells and THP-1 monocytes; format: cell-based, human; settings: RUX 1 μM
Description: We further examined BMMCs from two MM patients (#s 2188 and 2935) treated with RUX (1 μM) for 24 hours. RUX reduced B7-H3 gene expression as measured using qPCR in BMMCs (FIG. 7B). We also analyzed BMMCs co-cultured with stromal cells. B7-H3 gene expression was increased 16-fold in BMMCs after these cells were co-cultured with stromal cells. […] We further determined the effect of RUX (1 μM) on gene expression of B7-H3 in the MM cell line U266 co-cultured with THP-1 monocytes (T) after 48 hours. RUX at 1 μM reduced B7-H3 expression in both U266 MM cells and THP-1 monocytes, cultured alone or co-cultured, compared to cell cultures not treated with RUX (FIG. 7D).

[5] = tested on: B7-H3; assay: B7-H3 expression (qRT-PCR, flow cytometry, western blot) in MM cells (Example 12); format: cell-based, human
Description: Bone marrow mononuclear cells (BMMCs) were collected from MM patients after obtaining IRB approval. Single-cell suspensions were prepared from human MM LAGλ-1A xenografts which had been grown in severe combined immunodeficient mice. HS-5 stromal and SUP-T1 T cells were purchased from ATCC. The cells were cultured and treated with or without RUX and then subjected to qRT-PCR, flow cytometric analysis, and western blot analysis. For qRT-PCR, total RNA was extracted and applied to cDNA synthesis, followed by qPCR. Gene expression was analyzed in MM BMMCs alone or co-cultured with stromal cells or T cells with or without Rux treatment (1 μM) in vitro.

N#CC[C@H](C1CCCC1)n1cc(-c2ncnc3[nH]ccc23)cn1 [RUX, ruxolitinib]
PD-L1 gene expression in MM BMMCs [1]: marked decrease; also recorded: inhibits | PD-1 expression on T-cells [2]: no effect | efficacy of monotherapy for multiple myeloma [3]: ineffective | B7-H3 gene expression in BMMCs ([4]; BMMCs from two MM patients (#2188, #2935), 24 hours, qPCR): reduced; also recorded: down-regulates | B7-H3 expression in BMMCs co-cultured with stromal cells [4]: markedly reduced; also recorded: decreases | B7-H3 expression in U266 MM cells ([4]; cultured alone or co-cultured with THP-1, 48 hours): reduces | B7-H3 expression in THP-1 monocytes ([4]; cultured alone or co-cultured with U266, 48 hours): reduced | B7-H3 expression in BM from patients in PD co-cultured with stromal cells (HS-5) ([5]; after 48-72 hours, Rux 1 μM): significantly reduced | B7-H3 expression in MM cells (U266) ([5]; after 48-72 hours, Rux 1 μM): significantly reduced | B7-H3 expression in MMBMMCs in patients with PD ([5]; after 48-72 hours, Rux 1 μM): significantly reduced | B7H3 expression in human MM xenograft model LAGλ-1A ([5]; cultured ex vivo): decreased | B7-H3 at protein levels ([5]; flow cytometric analysis and western blotting): suppressed
